From US8273771B2, “Ischemic disorder or disease inhibitors” (Pronas Pharma AB, priority 2007, dated 2012)

System: MCA and BA from rats with induced SAH
Assay: Myograph contractile response to 5-CT in cerebral arteries of treated SAH rats
Parameters: species or system rat
Settings: treatment in vivo, compared to SAH rats; for 5-CT contraction, first 5-HT1B and second 5-HT2A phases: BA; for 5-CT contraction Emax(1) / 5-CT contraction Emax(2), pEC50(1) and pEC50(2): MCA
Procedure: After 48 hours of observation sham, SAH treated with SB386023-b or treated with the PKC inhibitor RO-31-7549 or U0126 or SAH+vehicle operated rats (see above SAH model) were anaesthetized with CO2 and decapitated. The brains were quickly removed and chilled in ice-cold bicarbonate buffer solution (see composition below). Under a dissection microscope, the middle cerebral artery (MCA), the basilar artery (BA) and circle of Willis were carefully dissected free from the brain and cleared of connective tissue. The MCA and BA were immediately mounted in myographs for in vitro pharmacology or snap frozen at −80° C. and examined by real-time PCR.
In vitro Pharmacology Myograph Experiments For contractile experiments a sensitive myograph was used for recording the isometric tension in isolated cerebral arteries (Hogestatt et al., (1983, Mulvany and Helpern, 1977). The vessels were cut into 1 mm long cylindrical segments and mounted on two 40 μm in diameter stainless steel wires in a Myograph (Danish Myo Technology A/S, Denmark). One wire was connected to a force displacement transducer attached to an analog-digital converter unit (ADInstruments, Oxford, UK). The other wire was connected to a micrometer screw, allowing fine adjustments of vascular tone by varying the distance between the wires. Measurements were recorded on a computer by use of a PowerLab unit (ADInstruments). The segments were immersed in a temperature controlled buffer solution (37° C.) of the following composition (mM) NaCl 119, NaHCO3 15, KCl 4.6, MgCl2 1.2, NaH2PO4 1.2, CaCl2 1.5 and glucose 5.5. The buffer was continuously aerated with oxygen enriched with 5% CO2 resulting in a pH of 7.4. The vessels were stretched to an initial resting tone of 2 mN and then allowed to stabilize at this tone for 1 hour. The contractile capacity was determined by exposing the vessels to an isotonic solution containing 63.5 mM of K+, obtained by partial change of NaCl for KCl in the above buffer. The contraction induced by K+ was used as reference for the contractile capacity. Only vessels responding by contraction of at least 2.0 mN to potassium for BA and 0.8 mN to potassium for MCA were included in the study. The presence of the endothelium was checked by precontracting the vessel using 5-HT (10^−6.5M) (Sigma, St Louis, USA) and subsequently exposing the segments to carbachol (10^−5 M) (Sigma, St Louis, USA). A relaxant response of the precontracted tension was considered indicative of a functional endothelium (Hansen-Schwartz et al., 2003a).
Concentration-response curves were obtained by cumulative application of 5-CT (Sigma, St. Louis, USA) in the concentration range 10^−12 to 10^−5 M, ET-1 (AnaSpec, San Jose, USA) in the concentration range 10^−14 to 10^−7 M and Ang II (Sigma, St. Louis, USA) in the concentration range 10^−12 to 10^−6 M. Before application of Ang II the arteries were pretreated with the AT2 receptor antagonist PD123319 (10^−5.5 M) for 30 minutes (a kind gift from Dr P. Morsing, Astra-Zeneca, Molndal, Sweden).
Data are expressed as mean±standard error of the mean (s.e.m.), and n refers to the number of rats. Statistical analyses were performed with Kruskal-Wallis non-parametric test with Dunn's post-hoc test, where P<0.05 was considered significant. In vitro Pharmacology Contractile responses in each segment are expressed as percentage of the 63.5 mM K+ induced contraction. Emax value represents the maximum contractile response elicited by an agonist and the pEC50 the negative logarithm of the drug concentration that elicited half the maximum response. For biphasic responses, Emax(1) and pEC50(1) describes the high affinity phase and Emax(2) and pEC50(2) describes the low affinity phase.

| Compound | 5-CT contraction, first 5-HT1B and second 5-HT2A phases | 5-CT contraction Emax(1) | 5-CT contraction Emax(2), pEC50(1) and pEC50(2) |
| --- | --- | --- | --- |
| Cn1cc(C2=C(c3cn(CCCN)c4ccccc34)C(=O)NC2=O)c2ccccc21 [RO-31-7549] | downregulated | significantly reduced | tendency to decrease |
| Oc1cc(-c2nc(-c3ccccc3)[nH]c2-c2ccncc2)ccc1Cl [SB386023-b] | downregulated | significantly reduced | tended to decrease |
| N#CC(=C(/N)Sc1ccccc1N)/C(C#N)=C(\N)Sc1ccccc1N [U0126] |  | significantly reduced | tended to decrease |
